A short description of data set [1]: Osmolarity of sucrose and glycylglycine solutions and of the first aqueous component. It is filed as physicochemical. The source says:
Drug loading in MVLs is modulated by controlling the osmolarity of the first aqueous component used during manufacture of the MVLs. Osmolarity is the sum of the molar concentrations of solutes present in an aqueous solution. If the solute is present in a dissociated, ionized or aggregated form, osmolarity is defined as the sum of the molar concentrations of the dissociated, ionized or aggregated forms. The solutes that contribute to the osmolarity of an aqueous solution include the IGF-I, and osmotic excipients that are to be encapsulated during manufacture of MVLs. The contribution to the osmolarity of a solution made by any solute in the solution is approximately equivalent to the weight concentration of the solute in the solution (e.g., mg/mL) divided by its molecular weight. Thus, as a general principle, for a given weight concentration, the larger the molecular weight of a solute, the smaller the osmolarity of the solute, and the smaller the contribution of that solute to the overall osmolarity of the solution. It is also possible to reduce the osmolarity of the first aqueous component by reducing the concentration of the active agent. This method will lead to a lower loading of IGF-I if the concentration of other solutes in the first aqueous component remain constant.

The nature of data set [2]: In vivo pharmacokinetics, serum IGF-I after subcutaneous injection in rats, low load versus free IGF-I. The arrangement: species or system rat. As to conditions: 20 mg/kg s.c.
Description: In-vivo studies. The pharmacokinetic behavior of a low load MVL formulation containing IGF-I was compared to that of unencapsulated IGF-I after subcutaneous injections (lower back) in rats. 20 mg/kg doses of either free IGF-I or a MVL formulation or IGF-I prepared from a stock solution of 5 mg/ml IGF-I was injected into each rat, with 3 rats per group. Sera were collected at various times up to 8 days post injection, and assayed for IGF-I using an IGF-I ELISA kits (DSL-10-5600) (Diagnostic Systems Laboratories (DSL), Webster, Tex.) according to the manufacturer's instructions. The pharmacokinetic parameters were calculated using the WinNonlin program (Scientific Consulting Inc.) and a non-compartmental model.
Data set [3] is described as follows: Solubility of IGF-I in aqueous solution versus pH. It is filed as physicochemical. The method, then: Applicants have also discovered a second parameter that must be taken into consideration in determining the composition of the first aqueous component during manufacture of the IGF-I formulations of this invention. The concentration of IGF-I in solution in the first aqueous component during manufacture is directly proportional to the amount of IGF-I that can be loaded in any give formulation. […] Further studies have shown that up to about 300 mg/mL of IGF-I can be solubilized at a pH below 5. Thus, to obtain and maintain sufficient IGF-I in solution in the first aqueous solution, a buffer or acid is also added to it during manufacture to assure a high enough concentration of dissolved IGF-I in the first aqueous component to obtain a final MVL product containing the desired loading of the drug. For the low load formulations, the pH of the first aqueous component is generally adjusted to a value within the range of 1 to about 5, while for high load formulations the pH range is between 2 and 4.8.

For another data set, the system named is MG-63 cells. The data set is described as follows: Mitogenic bioassay, MG-63 cells, MTT stain. Type of data set: cell-based, human. The conditions noted are these: standard control in mitogenic assay.

Where a SMILES comes first, the peptide text is derived from it.

From US6306432A, “High and low load formulations of IGF-I in multivesicular liposomes” (Chiron Corporation, priority 1997, dated 2001) come the findings set out here.

`NCC(=O)NCC(=O)O` [Glycylglycine, glycylglycine] (H-Gly-Gly-OH): the Osmolarity in data set [1] (0.5 w/v %) worked out at 38 mOsm; in data set [1] (1.0 w/v %) it was 76 mOsm; in data set [1] (1.5 w/v %), 114 mOsm; in data set [1] (2.0 w/v %) it was 152 mOsm; in data set [1] (2.5 w/v %) it was 189 mOsm; in data set [1] (3.0 w/v %) it was 227 mOsm. Besides, the Osmolarity in data set [1] (4.0 w/v %) turned out to be 303 mOsm; in data set [1] (5.0 w/v %), 379 mOsm; in data set [1] (6.0 w/v %), 455 mOsm; in data set [1] (7.0 w/v %), 530 mOsm; in data set [1] (8.0 w/v %), 606 mOsm.
As for `OC[C@H]1O[C@@](CO)(O[C@H]2O[C@H](CO)[C@@H](O)[C@H](O)[C@H]2O)[C@@H](O)[C@@H]1O` [sucrose], the Osmolarity in data set [1] (0.5 w/v %) was 15 mOsm; in data set [1] (1.0 w/v %) it was 30 mOsm; in data set [1] (1.5 w/v %), 45 mOsm; in data set [1] (2.0 w/v %), 60 mOsm; in data set [1] (2.5 w/v %), 76 mOsm; in data set [1] (3.0 w/v %) it was 91 mOsm. For the same compound, the Osmolarity in data set [1] (4.0 w/v %) was determined as 123 mOsm; in data set [1] (5.0 w/v %), 156 mOsm; in data set [1] (6.0 w/v %), 190 mOsm; in data set [1] (7.0 w/v %), 225 mOsm; in data set [1] (8.0 w/v %) it was 261 mOsm.
Consider Insulin-like Growth Factor I [IGF-I], for which the “Time after which free IGF-I is cleared” value in data set [2] is “about 1 day”. Further, the “Solubility of IGF-I in aqueous solution” value in data set [3] (at a pH of about 5) is listed as “drops precipitously at a pH of about 5”. Moreover, the IGF-I solubilized result in data set [3] (pH below 5) was “up to 300 mg/mL”. Also, the “Bioactivity of standard rhIGF-I” value is listed as 1.3×10^3 international units (IU)/mL in the data set with MG-63 cells (listed as recombinant human IGF-I) and ~ 1.3×10^3 international units (IU)/mL in the data set with MG-63 cells (listed as rhIGF-I).
